From patent US20250076312A1, “BIOMARKERS FOR THE TREATMENT OF INTERSTITIAL LUNG DISEASE” (Lung Therapeutics, LLC, priority 2021, published 2025)
Square brackets hold non-standard residues; d marks the D form. Ends that are not written are not given here.

How the values were obtained:
Format in all cases: cell-based, human
CXCL7 [1] = assay: CXCL7 ELISA in supernatant of healthy control lung macrophages; conditions: FIG. 14
Text: (§1) Lung macrophages were either left untreated or treated with Var55. Each line represents a biological replicate of lung macrophages from an individual control subject (triangles) or an individual with IPF (circles).
(§2) Lung macrophages were collected from humans with IPF or healthy controls and cultured in vitro. Lung macrophages were either left untreated or treated with Var55. Following treatment, supernatants from the lung macrophage cultures were collected and analyzed for CXCL7 expression by ELISA.

pSMAD2/3 [2] = assay: SMAD2/3 phosphorylation in IPF fibroblasts; conditions: 10 μM, compared to 1% DMSO vehicle or DMEM controls, FIG. 7A
Experimental: IPF fibroblasts were treated with DMEM, 1% DMSO vehicle, CSP-7 (10 μM), Var55 (10 μM), pirfenidone (500 μM), or nintedanib (100 nM). SMAD2/3 phosphorylation was determined by Western blot 24 hours following treatment. […] IPF epithelial cells were treated with DMEM (control), Var55 (100 μM), nintedanib (100 nM), control peptide 1 (CP1, 100 μM), or control peptide 2 (CP2, 100 μM). SMAD2/3 phosphorylation was determined by Western blot 24 hours following treatment. Phosphorylated SMAD2/3 protein levels were determined by normalizing to total SMAD2/3 protein (FIG. 7A and FIG. 7B). Primary lung fibroblasts from IPF patients were treated with 1% DMSO vehicle, CSP-7 (10 μM), Var55 (10 μM), pirfenidone (500 μM), or nintedanib (100 nM). SMAD2/3 phosphorylation was measured in IPF fibroblasts by a multiplex assay or Western blot analysis and phosphorylated SMAD2/3 was normalized to total SMAD2/3 protein.

CXCL7 [3] = assay: CXCL7 ELISA in supernatant of IPF lung macrophages; conditions: FIG. 14
Text: as §1, §2

pSMAD2/3 [4] = assay: SMAD2/3 phosphorylation in IPF epithelial cells; conditions: 100 μM, compared to DMEM control, FIG. 7B
Experimental: IPF fibroblasts were treated with DMEM, 1% DMSO vehicle, CSP-7 (10 μM), Var55 (10 μM), pirfenidone (500 μM), or nintedanib (100 nM). SMAD2/3 phosphorylation was determined by Western blot 24 hours following treatment. […] IPF epithelial cells were treated with DMEM (control), Var55 (100 μM), nintedanib (100 nM), control peptide 1 (CP1, 100 μM), or control peptide 2 (CP2, 100 μM). SMAD2/3 phosphorylation was determined by Western blot 24 hours following treatment. Phosphorylated SMAD2/3 protein levels were determined by normalizing to total SMAD2/3 protein (FIG. 7A and FIG. 7B).
Additional experiments were performed to determine whether phosphorylation of SMAD2/3 could be used as a biomarker associated with Var55 treatment. Epithelial cells from IPF patients were treated with DMEM (control), Var55 (100 μM), nintedanib (100 nM), control peptide 1 (CP1, 100 μM), or control peptide 2 (CP2, 100 μM). SMAD2/3 phosphorylation was measured in […] by a multiplex assay or Western blot analysis and phosphorylated SMAD2/3 was normalized to total SMAD2/3 protein.

LDH activity = tested on: LDH activity
Experimental: PCLSs were either untreated or treated with CSP-7 (10 μM or 100 μM), control peptide (CP, 100 μM), TGFβ (2 ng/mL), or pirfenidone (Pirf, 500 μM) and nintedanib (Nin, 100 nM). LDH activity was measured in the supernatant of IPF PCLSs on day 2 (left panel) or day 4 (right panel) following treatment. […] LDH activity was measured in the supernatant of IPF PCLSs on day 2 (left panel) or day 4 (right panel) following treatment.
LDH activity was also examined in the supernatants of IPF PCLSs either untreated (UT) or treated with CSP-7 (10 μM or 100 μM), control peptide (CP, 100 μM), TGFβ (2 ng/mL), or pirfenidone (Pirf, 500 μM) and nintedanib (Nin, 100 nM). LDH activity was measured using an LDH assay (Sigma-Aldrich, Cat No MAK066).

In the case of “Ac-aaEGKASFTTFTVTKGSaa-NH2 (Ac-[dA][dA]EGKASFTTFTVTKGS[dA][dA]-NH2; SMILES CC(=O)N[C@H](C)C(=O)N[C@H](C)C(=O)N[C@@H](CCC(=O)O)C(=O)NCC(=O)N[C@@H](CCCCN)C(=O)N[C@@H](C)C(=O)N[C@@H](CO)C(=O)N[C@@H](Cc1ccccc1)C(=O)N[C@H](C(=O)N[C@H](C(=O)N[C@@H](Cc1ccccc1)C(=O)N[C@H](C(=O)N[C@H](C(=O)N[C@H](C(=O)N[C@@H](CCCCN)C(=O)NCC(=O)N[C@@H](CO)C(=O)N[C@H](C)C(=O)N[C@H](C)C(N)=O)[C@@H](C)O)C(C)C)[C@@H](C)O)[C@@H](C)O)[C@@H](C)O) [Var55]”, the “CXCL7 in the supernatant” value (CXCL7 [1]) is reported as “significant reduction”, the “phosphorylation of SMAD2/3 normalized to total SMAD2/3” value (pSMAD2/3 [2]) is reported as “no difference” and the “CXCL7 in the supernatant” value (CXCL7 [3]) is reported as “significant reduction”. The “phosphorylation of SMAD2/3 normalized to total SMAD2/3” value (pSMAD2/3 [4]) was “reduced phosphorylation”.

With FTTFTVT [CSP-7, FTTFTVT] the “LDH activity in PCLS supernatant” value (LDH activity) was “slight reduction”.
